# “Also recorded” adds a separate entry of the source.
# B1: ARTS-1: aminopeptidase regulator of type I, 55 kDa tumor necrosis factor receptor ectodomain shedding; 941 amino acids, SEQ ID NO:2; overexpressed from pTarget (protein, listed as Homo sapiens)
# chain: MVFLPLKWSLATMSFLLSSLLALLTVSTPSWCQSTEASPKRSDGTPFPWNKIRLPEYVIPVHYDLLIHANLTTLTFWGTTKVEITASQPTSTIILHSHHLQISRATLRKGAGERLSEEPLQVLEHPRQEQIALLAPEPLLVGLPYTVVIHYAGNLSETFHGFYKSTYRTKEGELRILASTQFEPTAARMAFPCFDEPAFKASFSIKIRREPRHLAISNMPLVKSVTVAEGLIEDHFDVTVKMSTYLVAFIISDFESVSKITKSGVKVSVYAVPDKINQADYALDAAVTLLEFYEDYFSIPYPLPKQDLAAIPDFQSGAMENWGLTTYRESALLFDAEKSSASSKLGITMTVAHELAHQWFGNLVTMEWWNDLWLNEGFAKFMEFVSVSVTHPELKVGDYFFGKCFDAMEVDALNSSHPVSTPVENPAQIREMFDDVSYDKGACILNMLREYLSADAFKSGIVQYLQKHSYKNTKNEDLWDSMASICPTDGVKGMDGFCSRSQHSSSSSHWHQEGVDVKTMMNTWTLQKGFPLITITVRGRNVHMKQEHYMKGSDGAPDTGYLWHVPLTFITSKSDMVHRFLLKTKTDVLILPEEVEWIKFNVGMNGYYIVHYEDDGWDSLTGLLKGTHTAVSSNDRASLINNAFQLVSIGKLSIEKALDLSLYLKHETEIMPVFQGLNELIPMYKLMEKRDMNEVETQFKAFLIRLLRDLIDKQTWTDEGSVSERMLRSQLLLLACVHNYQPCVQRAEGYFRKWKESNGNLSLPVDVTLAVFAVGAQSTEGWDFLYSKYQFSLSSTEKSQIEFALCRTQNKEKLQWLLDESFKGDKIKTQEFPQILTLIGRNPVGYPLAWQFLRKNWNKLVQKFELGSSSIAHMVMGTTNQFSTRTRLEEVKGFFSSLKENGSQLRCVQQTIETIEENIGWMDKNFDKIRVWLQSEKLERM
# notes: aminopeptidase regulator of type I, 55 kDa tumor necrosis factor receptor ectodomain shedding; overexpressed from pTarget
# How the values were obtained:
# Format in all cases: cell-based, human
# [1] = test system: TNFR1 ectodomain shedding in NCI-H292 cells; assay: TNFR1 ectodomain shedding assay (sTNFR1 sandwich ELISA of cell culture supernatants); settings: for sTNFR1 in cell culture supernatant following PMA treatment: 24 hours
# Procedure: The amount of TNFR1 ectodomain shedding occurring in each of these cell lines is depicted in FIG. 8. The levels of sTNFR1 ectodomain in cell culture supernatants from these cell lines were assayed using a commercially available sandwich-enzyme-linked immunosorbent assay (ELISA) technique (R & D Systems) with a lower limit of detection of 7.8 pg/ml.
# Following the introduction and selection of these constructs in the host cell lines, the amount of TNFR1 ectodomain shedding occurring in each of the lines was determined by measuring the levels of sTNFR1 ectodomain in cell culture supernatants using a commercially available sandwich-enzyme-linked immunosorbent assay (ELISA) technique (R & D Systems) with a lower limit of detection of 7.8 pg/ml.
# The amount of TNFR1 ectodomain shedding occurring in each of the stably transfected cell lines described in Example 9 was assessed. The levels of sTNFR1 ectodomain in cell culture supernatants from these cell lines were assayed by a commercially available sandwich-enzyme-linked immunosorbent assay (ELISA) technique (R & D Systems) with a lower limit of detection of 7.8 pg/ml. The protocol used was according to the manufacturer's instructions. The results of this assay are depicted in FIG. 8 as the mean of 5 independent experiments, with accompanying SEM (standard error of the mean) indicated above the bar.
# A similar experiment analyzing the ability of ARTS-1 overexpression to potentiate the cleavage and shedding of TNFR ectodomain from the surface of NCI-H292 cells in response to PMA stimulation using these same cell lines is shown in FIG. 9.
# This assay was further used to measure the sTNFR1 ectodomain shedding activity of ARTS-1 peptidase/protease catalytic mutants. The construction of these mutations (and resulting mutant cell lines) are described in Example 10. The ability of theses mutants to regulate sTNFR1 shedding was ascertained by measuring the concentration of sTNFR1 in the cell culture supernatant as described above in this Example.
# Results from a second screening method are illustrated in FIG. 14, Panel B. In this screening method, cultured human NCI-H292 pulmonary mucoepidermoid carcinoma cells were again exposed to a test compound, PMA, at a concentration of 0.1 μM. Culture medium supernatant was collected from the cultures at intervals between 0 and 24 hours post treatment. The samples were analyzed by the TNFR1 ectodomain shedding assay using an ELISA as described in Example 11. In this assay, anti-sTNFR1 antibody was used to quantitate the concentrations of sTNFR1 in the cell culture supernatants. […] Thus, this screening method also identified a compound that is a candidate for further drug development.
# [2] = test system: ARTS-1 protein in NCI-H292 cells; assay: Drug screening: ARTS-1 protein expression by Western immunoblot of membrane protein fractions; settings: 0.1 μM PMA, 0 to 24 hours, membrane protein fraction
# Procedure: In another embodiment of the screening method of the present invention, Western immunoblotting is used to assess the levels of ARTS-1 protein following exposure of a cell culture to a test compound. In this embodiment, cultured cells were exposed to a test compound, in this case, 4b-phorbol 12-myristate 13-acetate (PMA), and samples of tissue were collected at 0, 2, 8 and 24 hours following the exposure. Membrane proteins were isolated from these cells and subjected to Western immunoblot analysis, as described in Examples 4 and 5, using antiserum specific for the ARTS-1 protein. […] It is contemplated that compounds that can upregulate ARTS-1 protein levels are therapeutically advantageous, as such compounds can suppress a proinflammatory immune response by enhancing receptor ectodomain shedding. However, an understanding of the mechanism(s) is not required in order to use the present invention. […]
# In the first method, cultured human NCI-H292 pulmonary mucoepidermoid carcinoma cells were exposed to a test compound, in this case, 4b-phorbol 12-myristate 13-acetate (PMA) at a concentration of 0.1 μM. […] The protein samples were analyzed in a Western immunoblot using the anti-ARTS-1 antiserum at the primary detection antibody, as described in Examples 4 and 5. The protein fractions were analyzed in duplicate, and the relative densitometry units for each lane are shown beneath the columns. […]
# [3] = test system: membrane-associated TNFR1 in NCI-H292 cells; assay: Membrane-associated TNFR1 by Western immunoblot of crude membrane fractions of stably transfected cells
# Procedure: The degree of TNFR1 ectodomain shedding as a function of ARTS-1 protein expression was also assessed indirectly by determining the relative amounts of membrane-bound TNFR1 fragment in each of the stably transfected cell lines described above using the Western immunoblotting technique described in Example 5. Crude membrane fractions from the stably transfected NCI-H292 cells described in Example 9 were prepared and resolved by SDS-PAGE and analyzed by Western immunoblotting using a murine anti-human TNFR1 monoclonal primary antibody (R & D System) which detects the membrane fragment of the TNF receptor.
# The degree of TNFR1 ectodomain shedding as a function of ARTS-1 protein expression was also indirectly assessed by determining the relative amounts of membrane-bound TNFR1 fragment in each of the stably transfected cell lines described in Example 9 using Western immunoblotting.
# Crude membrane fractions from the stably transfected NCI-H292 cells described in Example 9 were prepared and protein concentrations were quantitated, as described above. Samples from these membrane-derived protein preparations were resolved by SDS-PAGE and analyzed by Western immunoblotting as described above in Example 5 using a murine anti-human TNFR1 monoclonal primary antibody which detected the membrane fragment of the receptor (R & D System). […]
Molecule,"sTNFR1 in cell culture supernatant following PMA treatment ([1]; 0.1 μM PMA, NCI-H292 cell line containing only the empty pTarget vector)","sTNFR1 in cell culture supernatant following PMA treatment ([1]; 0.1 μM PMA, NCI-H292 cell line overexpressing the ARTS-1 cDNA)","sTNFR1 shedding compared to a control culture ([1]; NCI-H292 cells, 0.1 μM PMA, over the course of 24 hours, n=5, P<0.05)",ARTS-1 protein expression [2],increase in sTNFR1 shedding ([1]; overexpression of ARTS-1 protein in stably transfected NCI-H292 cells vs Mock or WT controls),"level of sTNFR1 in cell culture supernatant compared to control cell lines (WT, Mock) ([1]; stably transfected NCI-H292 cell lines, mean of 5 independent experiments)",membrane-associated TNFR1 relative to WT or Mock cell lines [3]
"CCCCCCCCCCCCCC(=O)O[C@@H]1[C@@H](C)[C@@]2(O)[C@@H](C=C(CO)C[C@]3(O)C(=O)C(C)=C[C@@H]23)[C@@H]2C(C)(C)[C@]12OC(C)=O [PMA, 4b-phorbol 12-myristate 13-acetate]",415.3 ± 4.5 pg/mL,914.2 ± 9.5 pg/mL,increase in sTNFR1 shedding,upregulation of ARTS-1 protein expression; also recorded: increase in ARTS-1 protein expression,–,–,–
B1,–,–,–,–,approximately 200%,significant increase; also recorded: significantly elevated level of sTNFR1,decrease

# — patent US7135303B2, “Regulators of type-1 tumor necrosis factor receptor and other cytokine receptor shedding” (The United States of America as represented by the …, priority 2000, dated 2006)
